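The compound was tested at five concentrations on cells cultured in 96-well plates, with a 48-hour exposure period. Here, GI50 denotes the concentration required for 50% inhibition of growth.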 Calls of active or inactive are those of the source. No stated cut-off is given here; in the data, active = GI50 up to about 1.1 µM and inactive = higher.
What was measured:
Assay in all cases: NCI-60 cell line screen, 48 h
786-0 = tested on: 786-0
A498 = tested on: A498
A549 = tested on: A549
ACHN = tested on: ACHN
BT-549 = tested on: BT-549
CAKI-1 = tested on: CAKI-1
CCRF-CEM = tested on: CCRF-CEM
COLO 205 = tested on: COLO 205
DU-145 = tested on: DU-145
EKVX = tested on: EKVX
HCC 2998 = tested on: HCC 2998
HCT-116 = tested on: HCT-116
HCT-15 = tested on: HCT-15
HOP-62 = tested on: HOP-62
HOP-92 = tested on: HOP-92
HT-29 = tested on: HT-29
IGROV-1 = tested on: IGROV-1
K562 = tested on: K562
KM12 = tested on: KM12
LOX IMVI = tested on: LOX IMVI
M14 = tested on: M14
MCF7 = tested on: MCF7
MDA-MB-231 = tested on: MDA-MB-231
MDA-MB-435 = tested on: MDA-MB-435
MDA-N = tested on: MDA-N
MOLT-4 = tested on: MOLT-4
Malme-3M = tested on: Malme-3M
NCI-H226 = tested on: NCI-H226
NCI-H23 = tested on: NCI-H23
NCI-H460 = tested on: NCI-H460
NCI-H522 = tested on: NCI-H522
NCI/ADR-RES = tested on: NCI/ADR-RES
OVCAR-3 = tested on: OVCAR-3
OVCAR-4 = tested on: OVCAR-4
OVCAR-5 = tested on: OVCAR-5
PC-3 = tested on: PC-3
RPMI-8226 = tested on: RPMI-8226
RXF 393 = tested on: RXF 393
SF-268 = tested on: SF-268
SF-295 = tested on: SF-295
SF-539 = tested on: SF-539
SK-MEL-28 = tested on: SK-MEL-28
SK-MEL-2 = tested on: SK-MEL-2
SK-MEL-5 = tested on: SK-MEL-5
SK-OV-3 = tested on: SK-OV-3
SN12C = tested on: SN12C
SNB-19 = tested on: SNB-19
SNB-75 = tested on: SNB-75
SR = tested on: SR
SW-620 = tested on: SW-620
T47D = tested on: T47D
TK-10 = tested on: TK-10
U-251 = tested on: U-251
UACC-257 = tested on: UACC-257
UACC-62 = tested on: UACC-62
UO-31 = tested on: UO-31
HL-60 = tested on: HL-60
Hs-578T = tested on: Hs-578T
OVCAR-8 = tested on: OVCAR-8

Cc1oc(N)c(S(=O)(=O)/C(C#N)=C/c2ccccc2[N+](=O)[O-])c1C
GI50 (786-0): 30.5 µM (inactive)
GI50 (A498): 85.5 µM (inactive)
GI50 (A549): 25.2 µM (inactive)
GI50 (ACHN): 25.4 µM (inactive)
GI50 (BT-549): 17.5 µM (inactive)
GI50 (CAKI-1): 22.6 µM (inactive)
GI50 (CCRF-CEM): 24.1 µM (inactive)
GI50 (COLO 205): 21.7 µM (inactive)
GI50 (DU-145): 62.4 µM (inactive)
GI50 (EKVX): 33.7 µM (inactive)
GI50 (HCC 2998): 32.1 µM (inactive)
GI50 (HCT-116): 20.8 µM (inactive)
GI50 (HCT-15): 26.5 µM
GI50 (HOP-62): 31.1 µM (inactive)
GI50 (HOP-92): 34.7 µM (inactive)
GI50 (HT-29): 19.2 µM (inactive)
GI50 (IGROV-1): 24.9 µM (inactive)
GI50 (K562): 18.6 µM (inactive)
GI50 (KM12): 25.2 µM (inactive)
GI50 (LOX IMVI): 14 µM (inactive)
GI50 (M14): 18.5 µM (inactive)
GI50 (MCF7): 31.1 µM (inactive)
GI50 (MDA-MB-231): 32.9 µM (inactive)
GI50 (MDA-MB-435): 32.7 µM (inactive)
GI50 (MDA-N): 20.7 µM (inactive)
GI50 (MOLT-4): 22.4 µM (inactive)
GI50 (Malme-3M): 33.8 µM (inactive)
GI50 (NCI-H226): 58.3 µM (inactive)
GI50 (NCI-H23): 23.6 µM (inactive)
GI50 (NCI-H460): 31.1 µM (inactive)
GI50 (NCI-H522): 19.1 µM (inactive)
GI50 (NCI/ADR-RES): 27.3 µM (inactive)
GI50 (OVCAR-3): 21.4 µM (inactive)
GI50 (OVCAR-4): 38.5 µM (inactive)
GI50 (OVCAR-5): 20.6 µM (inactive)
GI50 (PC-3): 23.1 µM (inactive)
GI50 (RPMI-8226): 27.9 µM (inactive)
GI50 (RXF 393): 21.9 µM (inactive)
GI50 (SF-268): 31 µM (inactive)
GI50 (SF-295): 33.9 µM (inactive)
GI50 (SF-539): 25.5 µM (inactive)
GI50 (SK-MEL-28): 24.2 µM (inactive)
GI50 (SK-MEL-2): 37.2 µM (inactive)
GI50 (SK-MEL-5): 19.2 µM (inactive)
GI50 (SK-OV-3): > 100 µM (inactive)
GI50 (SN12C): 22.9 µM (inactive)
GI50 (SNB-19): 33.5 µM (inactive)
GI50 (SNB-75): 33.2 µM (inactive)
GI50 (SR): 14 µM (inactive)
GI50 (SW-620): 26.6 µM (inactive)
GI50 (T47D): 27 µM (inactive)
GI50 (TK-10): 50.2 µM (inactive)
GI50 (U-251): 19.5 µM (inactive)
GI50 (UACC-257): 32.2 µM (inactive)
GI50 (UACC-62): 20.7 µM (inactive)
GI50 (UO-31): 16.4 µM (inactive)

CC1(C)Oc2ccc3c(=O)cc(-c4cccs4)oc3c2C1C(=O)O (stereo not drawn)
GI50 (786-0): > 100 µM (inactive)
GI50 (A498): > 100 µM (inactive)
GI50 (A549): > 100 µM (inactive)
GI50 (CAKI-1): 23.2 µM (inactive)
GI50 (CCRF-CEM): > 100 µM (inactive)
GI50 (COLO 205): > 100 µM (inactive)
GI50 (DU-145): > 100 µM (inactive)
GI50 (EKVX): > 100 µM (inactive)
GI50 (HCC 2998): > 100 µM (inactive)
GI50 (HCT-116): > 100 µM (inactive)
GI50 (HL-60): > 100 µM (inactive)
GI50 (HOP-62): > 100 µM (inactive)
GI50 (HT-29): > 100 µM (inactive)
GI50 (Hs-578T): > 100 µM (inactive)
GI50 (IGROV-1): > 100 µM (inactive)
GI50 (K562): > 100 µM (inactive)
GI50 (M14): > 100 µM (inactive)
GI50 (MCF7): > 100 µM (inactive)
GI50 (MDA-MB-231): > 100 µM (inactive)
GI50 (MDA-MB-435): > 100 µM (inactive)
GI50 (MDA-N): > 100 µM (inactive)
GI50 (MOLT-4): > 100 µM (inactive)
GI50 (Malme-3M): > 100 µM (inactive)
GI50 (NCI-H226): > 100 µM (inactive)
GI50 (NCI-H23): > 100 µM (inactive)
GI50 (NCI-H522): > 100 µM (inactive)
GI50 (NCI/ADR-RES): > 100 µM (inactive)
GI50 (OVCAR-3): > 100 µM (inactive)
GI50 (OVCAR-5): > 100 µM (inactive)
GI50 (OVCAR-8): > 100 µM (inactive)
GI50 (PC-3): > 100 µM (inactive)
GI50 (RXF 393): > 100 µM (inactive)
GI50 (SF-268): > 100 µM (inactive)
GI50 (SF-295): > 100 µM (inactive)
GI50 (SF-539): > 100 µM (inactive)
GI50 (SK-MEL-2): > 100 µM (inactive)
GI50 (SK-MEL-5): > 100 µM (inactive)
GI50 (SK-OV-3): > 100 µM (inactive)
GI50 (SN12C): > 100 µM (inactive)
GI50 (SR): > 100 µM (inactive)
GI50 (T47D): > 100 µM (inactive)
GI50 (TK-10): > 100 µM (inactive)
GI50 (U-251): > 100 µM (inactive)
GI50 (UACC-257): > 100 µM (inactive)
GI50 (UACC-62): > 10 µM (inactive)

CCCCCC(=O)N[C@@H](c1ccco1)[C@@H](O)C(=O)O[C@H]1C[C@@]2(O)[C@@H](OC(=O)c3ccccc3)[C@@H]3[C@]4(OC(C)=O)CO[C@@H]4C[C@H](O)[C@@]3(C)C(=O)[C@H](OC(C)=O)C(=C1C)C2(C)C
GI50 (ACHN): 0.0406 µM (active)
GI50 (CCRF-CEM): < 0.0025 µM (active)
GI50 (COLO 205): < 0.0025 µM (active)
GI50 (EKVX): > 25 µM (inactive)
GI50 (HCC 2998): < 0.0025 µM (active)
GI50 (HCT-116): < 0.0025 µM (active)
GI50 (HCT-15): 0.0295 µM
GI50 (HOP-62): < 0.0025 µM (active)
GI50 (HOP-92): < 0.0025 µM (active)
GI50 (HT-29): < 0.0025 µM (active)
GI50 (Hs-578T): < 0.0025 µM (active)
GI50 (KM12): < 0.0025 µM (active)
GI50 (MCF7): < 0.0025 µM (active)
GI50 (MDA-MB-435): < 0.0025 µM (active)
GI50 (MDA-N): < 0.0025 µM (active)
GI50 (MOLT-4): < 0.0025 µM (active)
GI50 (NCI-H23): < 0.0025 µM (active)
GI50 (NCI-H460): < 0.0025 µM (active)
GI50 (NCI-H522): < 0.0025 µM (active)
GI50 (NCI/ADR-RES): 1.75 µM (inactive)
GI50 (OVCAR-4): 4.32 µM (inactive)
GI50 (OVCAR-8): < 0.0025 µM (active)
GI50 (RPMI-8226): < 0.0025 µM (active)
GI50 (RXF 393): < 0.0025 µM (active)
GI50 (SF-268): < 0.0025 µM (active)
GI50 (SK-MEL-5): 0.025 µM (active)
GI50 (SK-OV-3): < 0.0025 µM (active)
GI50 (SNB-19): < 0.0025 µM (active)
GI50 (SR): < 0.0025 µM (active)
GI50 (TK-10): 0.0908 µM (active)
GI50 (U-251): < 0.0025 µM (active)
GI50 (UO-31): 0.0575 µM (active)
